These results are taken from patent publication US20250120941A1, “Composition for Promoting the Assimilation of an Oligosaccharide” (MORINAGA MILK INDUSTRY CO., LTD., priority 2021, published 2025).

Structures are written as SMILES.

Experiment [1] has as its system intestinal bacteria of infant fecal sample (feces B). In words: Fecal culture: oligosaccharide residual rate in culture supernatant (Test Example 1). The class given is cell-based, human infant. On the procedure:
Fecal samples were obtained from two healthy infants (feces A from an infant and feces B from an infant). The samples were collected immediately after the defecation and immediately moved to 10° C. or lower under an anaerobic condition. The collected feces were diluted with 10 times the amount of physiological saline within eight hours of the defecation and stored at −80° C. until use.
To imitate the environment of the large intestine, a culture experiment was conducted by the following procedures. Bio Jr. 8 100 mLx8 culture apparatus (BJR-25NA1S-8M manufactured by Biott Corporation) was used, and the operations were according to the instructions of the device. The medium components except for the tocopherols and the oligosaccharides were dissolved in purified water and sterilized in an autoclave. The tocopherols and the oligosaccharides which were dissolved in dimethyl sulfoxide (DMSO, FUJIFILM Wako Pure Chemical Corporation) and in purified water, respectively, and which were then sterilized with a filter were added to the medium after the autoclave treatment. The culture temperature was 37° C., and the anaerobic condition was maintained during the culture period by blowing filter-sterilized CO2 into the culture vessels. […]

Experiment [2] concerns bifidobacterial strains in infant fecal samples (feces A, feces B). In words: Fecal culture: bifidobacterial count by quantitative PCR (Test Example 3). The class given is cell-based, human infant. To be noted: after seven hours of culture, group without tocopherols = 1. On the procedure: The feces A and the feces B prepared in Test Example 1 described above were used as fecal samples.
To imitate the environment of the large intestine, a culture experiment was conducted by the following procedures. Bio Jr. 8 100 mLx8 culture apparatus (BJR-25NA1S-8M manufactured by Biott Corporation) was used, and the operations were according to the instructions of the device. The medium components except for the tocopherols and the oligosaccharides were dissolved in purified water and sterilized in an autoclave, and the tocopherols and the oligosaccharides which were dissolved in dimethyl sulfoxide (DMSO, FUJIFILM Wako Pure Chemical Corporation) and in purified water, respectively, and which were then sterilized with a filter were added to the mixture after the autoclave treatment. The culture temperature was 37° C., and the anaerobic condition was maintained during the culture period by blowing filter-sterilized CO2 into the culture vessels. After adjusting the pH to 7.0, 100 μL (10 mg in terms of feces) of the fecal samples, which were diluted with physiological saline, were added, and anaerobic culture was started. To imitate the pH in the large intestine of an infant, the pH was controlled by neutralizing with 1M Na2CO3 when the pH became lower than 5.5 during the culture period. The media were collected 7 hours after starting the culture and centrifuged at 8000 rpm for 3 min at 4° C., and the supernatants and the precipitates were collected.
Using GENE PREP STAR PI-480 automated isolation system (Kurabo Industries Ltd. Japan), DNA was extracted from the precipitates collected in (2). Using the extracted DNA as templates and using the primers of SEQ ID NO: 1 (ctcctggaaacgggtgg) and SEQ ID NO: 2 ([…]), quantitative PCR was conducted with Applied Bio systems 7500 Fast & 7500 Real-Time PCR System (manufactured by Thermo Fisher), and the bacterial counts of bifidobacterial strains were measured. The PCR conditions were 40 cycles of denaturation at 95° C. for 5 seconds, subsequent annealing at 55° C. for 20 seconds and elongation at 72° C. for 30 seconds.
The bacterial counts of bifidobacterial strains after seven hours of culture, which were measured by the quantitative PCR, are shown in Table 5. The bacterial counts are the relative values where the bacterial counts of the groups without the addition of the tocopherols are regarded as 1.

In the case of `C[C@@H]1O[C@@H](O[C@H]2[C@H](O[C@H]3[C@H](O)[C@@H](O)C(O)O[C@@H]3CO)O[C@H](CO)[C@H](O)[C@@H]2O)[C@@H](O)[C@H](O)[C@@H]1O` (stereo partly drawn) [Comparative Example 1, 2′-Fucosyllactose], the “2′-FL Residual Rate” value in experiment [1] (after 7-hr culture, YCFA medium, before culture = 100) is listed as 114 mass %. Also, the “assimilation of 2′-fucosyllactose (in words)” value in experiment [1] (after seven hours of culture) is recorded as “remained in the supernatant without being assimilated”. For the same compound, the “bifidobacterial Count (Relative Value)” value in experiment [2] (Feces A) and in experiment [2] (Feces B) was 1 throughout.

Take `CC(=O)N[C@H]1[C@H]([C@H](O)[C@H](O)CO)O[C@@](OC[C@H]2O[C@@H](O[C@H]3[C@H](O)[C@@H](O)[C@H](O)O[C@@H]3CO)[C@H](O)[C@@H](O)[C@H]2O)(C(=O)O)C[C@@H]1O` [Comparative Example 9, 6′-Sialyllactose]: the “bifidobacterial Count (Relative Value)” value in experiment [2] (Feces A) and in experiment [2] (Feces B) was 1 each time.
